Test results from patent US20060165732A1, “Fungal antigens and eosinophil activity” (priority 2002, published 2006).
Like-named read-outs stand apart in the source and are kept apart here.

Tests used:
[1] = tested on: Alternaria-induced eosinophil degranulation; experiment: Effect of test agents on Alternaria-induced eosinophil degranulation (EDN release); assay type: cell-based, human
Protocol: (§1) To monitor eosinophil degranulation, 200 μL of freshly isolated eosinophils were resuspended in HBSS with 25 mM HEPES and 0.01% gelatin at 5×10^5 cells/mL and incubated with the a particular fungal extract. After incubation for 3 hours at 37° C. in a 5% CO2 atmosphere, cell-free supernatants from each well were collected and stored at −20° C. To quantitate eosinophil degranulation, the concentration of one of the eosinophil granule proteins in the sample supernatants, EDN, was measured by specific RIA, as described previously (Horie & Kita, 1994, J. Immunol., 152:5457). The RIA is a double-Ab competition assay in which radioiodinated EDN, rabbit anti-EDN Ab, and burro anti-rabbit IgG are used (Abu-Ghazaleh et al., 1989, J. Immunol., 142:2393). Sensitivity of the kit was 2 ng/mL. Total cellular EDN was measured in parallel supernatants from cells lysed with Nonidet P-40 detergent (Sigma Chemical Co.). All experiments were conducted in duplicate.
The mechanism of the eosinophil degranulation response to Alternaria antigens was examined. To test whether Alternaria proteases are involved in eosinophil activation, Alternaria extracts either were pretreated with a cocktail of protease inhibitors (Complete™, Roche Molecular Biochemicals, Indianapolis, Ind.) or were not pretreated (control). Eosinophils then were incubated with the pretreated or control Alternaria extracts for 4 hours, and EDN release was measured.
(§2) To examine the effect of cytochalasin B in the eosinophil response, eosinophils were preincubated with or without cytochalasin B (5 μg/mL) for 15 minutes at 37° C. After preincubation, eosinophils were exposed to either Alternaria culture extract (100 μg/mL) or IL-5 (10 ng/mL) for 3 hours at 37° C., and EDN release from eosinophils was measured.
(§3) Next, the effect of a Ca^2+ chelator, EGTA, on Alternaria- or IL-5-induced eosinophil degranulation was investigated.
(§4) Eosinophils were pre-treated with various concentrations of ionomycin (FIG. 8D) or thapsigargin (FIG. 8E) for 15 minutes, and then exposed to Alternaria culture extract (100 μg/mL) or IL-5 (10 ng/mL) for 3 hours at 37° C.

[2] = tested on: IL-5-induced eosinophil degranulation; assay type: cell-based, human
Protocol: as §1, §2, §3, §4

[3] = tested on: PBMC; experiment: Effect of fluticasone propionate on IL-5 production by PBMC (ELISA); assay type: cell-based, human
Protocol: PBMC were isolated from 30 mL of blood drawn from patients with chronic sinusitis, bronchial asthma, or normal individuals by density centrifugation using Histopaque®. Cells were then suspended in RPMI 1640 medium supplemented with 10% fetal bovine serum at 2×10^6 cells/mL and incubated for 3 days at 37° C. in 96-well tissue culture plates with medium alone, 25 μg/mL Alternaria cellular extract, 25 μg/mL Dermatophagoides Pteronyssinus (Der P; Greer Laboratories; a mite allergen), or 5 μg/mL Concanavalin A. Since Concanavalin A is a very potent inducer, supernatants of PBMC were diluted 50-fold before they were analyzed for the presence of IL-5.
To examine the effects of glucocorticoids on the eosinophilic response, fluticasone propionate (10^−10 M to 10^−6 M, GlaxoSmithKline) was added to the culture. After incubation, cell-free supernatants were collected and analyzed for IL-5 concentrations using an ELISA assay (Endogen, Inc.). In the experiments with Concanavalin A, the amount of IL-5 determined by ELISA was multiplied by 50 to account for the dilution factor.

[4] = tested on: mice; experiment: Airway eosinophilia in mice (BAL fluid cells, DiffQuick stain); assay type: in vivo
Protocol: Mice were sensitized at day 14 with 20 μg/dose OVA or 100 μg/dose Alternaria extracts (cellular or culture) by intraperitoneal injection of the antigens followed by intranasal challenge with the appropriate antigen at 250 μg/dose on days 28, 30, and 32.
Eosinophils were detected in mice by collecting BAL fluids, isolating the cells using a cytospin preparation, and staining the cells with DiffQuick stain (DADE Behring, Inc., Newark, Del.).
Furthermore, at 250 μg/dose of Alternaria culture extract, about 10% of the mice died before day 8 due to massive respiratory failure.
To examine the role of IL-5 in airway eosinophilia induced by Alternaria culture extracts, mice were pre-treated with 25 μg/dose of an anti-IL-5 mAb (Pharmingen) or a control antibody (rat IgG) 24 hours before being intranasally challenged at days 0, 3, and 6 with 250 μg/dose OVA, or 250 μg/dose Alternaria culture extract. The number of eosinophils was analyzed by DiffQuick staining at day 8.

[5] = fluticasone 10^−10 M, asthma patient PBMC, 3 days
[6] = fluticasone 10^−10 M, medium alone, asthma patient PBMC, 3 days
[7] = fluticasone 10^−10 M, multiplied by 50 for dilution
[8] = fluticasone 10^−10 M, supernatant diluted 50-fold
[9] = pre-treatment 15 minutes, various concentrations, Alternaria culture extract 100 μg/mL, 3 hours
[10] = pre-treatment 15 minutes, various concentrations, IL-5 10 ng/mL, 3 hours

`NCCc1ccc(S(=O)(=O)F)cc1` [AEBSF] was tested, and the “inhibition of Alternaria-induced eosinophil degranulation” value ([1]; Alternaria extracts pretreated with inhibitor, 4 hours, EDN release) was 89%.

Work on `CCCCCCCCCCCCCCCCCCNC(=O)OCC(COC(=O)N(Cc1cccc[n+]1CC)C(C)=O)OC` (stereo not drawn) [CV6209] yielded an IC50 ([1]; Homo sapiens, Eosinophil, read-out: IC50 for Alternaria-induced degranulation) of roughly 1000 nM.

With `O=C(O)CN(CCN(CC(=O)O)CC(=O)O)CC(=O)O` [EDTA] the “effect on Alternaria-induced eosinophil degranulation” value ([1]; various concentrations) was “completely inhibited” and the “effect on IL-5-induced eosinophil degranulation” value [2] was “completely inhibited”.

With `O=C(O)CN(CCOCCOCCN(CC(=O)O)CC(=O)O)CC(=O)O` [EGTA] the “effect on Alternaria-induced eosinophil degranulation” value ([1]; 1 mM, pretreatment 15 minutes) was “almost completely inhibited”, the “effect on Alternaria-induced eosinophil degranulation” value ([1]; 10 mM, pretreatment 15 minutes) was “almost completely inhibited” and the “effect on IL-5-induced degranulation” value ([2]; 1 mM, pretreatment 15 minutes) was “only partially inhibited”. For the same molecule, the “effect on IL-5-induced degranulation” value ([2]; 10 mM, pretreatment 15 minutes) was “almost completely inhibited”.

`C=CC[C@@H]1/C=C(\C)C[C@H](C)C[C@H](OC)[C@H]2O[C@@](O)(C(=O)C(=O)N3CCCC[C@H]3C(=O)O[C@H](/C(C)=C/[C@@H]3CC[C@@H](O)[C@H](OC)C3)[C@H](C)[C@@H](O)CC1=O)[C@H](C)C[C@@H]2OC` [FK-506] was tested, and the “effect on IL-5-induced eosinophil degranulation” value ([2]; various concentrations) was “no effect”.

With `CN(C)CCCn1cc(C2=C(c3c[nH]c4ccccc34)C(=O)NC2=O)c2ccccc21` [GF109203X] the “effect on IL-5-induced eosinophil degranulation” value ([2]; various concentrations) was “partially inhibited”.

`O=c1c(-c2ccc(O)cc2)coc2cc(O)cc(O)c12` [Genistein] was tested, and the “effect on IL-5-induced eosinophil degranulation” value ([2]; various concentrations) was “completely inhibited”.

With `Cn1c2ccccc2c2c3c(c4c5ccccc5n(CCC#N)c4c21)CNC3=O` [Go 6976] the “effect on IL-5-induced eosinophil degranulation” value ([2]; various concentrations) was “completely inhibited”.

With `COc1cccc(-c2cc(=O)c3ccccc3o2)c1N` [PD98059] the “effect on IL-5-induced eosinophil degranulation” value ([2]; various concentrations) was “partially inhibited”.

For `CC(=O)c1c(O)c(C)c(O)c(Cc2c(O)c3c(c(C(=O)/C=C/c4ccccc4)c2O)OC(C)(C)C=C3)c1O` [Rottelerin], the “effect on IL-5-induced eosinophil degranulation” value ([2]; various concentrations) was “completely inhibited”.

`C[S+]([O-])c1ccc(-c2nc(-c3ccncc3)c(-c3ccc(F)cc3)[nH]2)cc1` (stereo not drawn) [SB203580] was tested, and the “effect on IL-5-induced eosinophil degranulation” value ([2]; various concentrations) was “completely inhibited”.

In the case of `CCCC[C@@H](C=O)NC(=O)[C@H](CC(C)C)NC(=O)OCc1ccccc1` [calpeptin, Calpeptin], the “effect on IL-5-induced eosinophil degranulation” value ([2]; various concentrations) is reported as “partially inhibited”.

`C=C1[C@@H](C)[C@H]2[C@H](Cc3ccccc3)NC(=O)[C@]23OC(=O)/C=C/[C@H](O)CCC[C@@H](C)C/C=C/[C@H]3[C@@H]1O` [cytochalasin B] was tested, and the “effect on Alternaria-induced eosinophil degranulation” value ([1]; 5 μg/mL preincubation 15 minutes, Alternaria culture extract 100 μg/mL, 3 hours) was “not affected” and the “effect on IL-5-induced degranulation” value ([2]; 5 μg/mL preincubation 15 minutes, IL-5 10 ng/mL, 3 hours) was “inhibited”.

With `CCC(=O)O[C@]1(C(=O)SCF)[C@H](C)C[C@H]2[C@@H]3C[C@H](F)C4=CC(=O)C=C[C@]4(C)[C@@]3(F)[C@@H](O)C[C@@]21C` [fluticasone propionate] the “IL-5 production in the presence of Concanavalin A” value [3] was “inhibited”, the “IL-5 production in Alternaria-induced PBMC” value ([3]; 10^−10 M, lowest concentration) was “significantly inhibited” and the “IL-5 production in the presence of Der P” value ([3]; 10—O M as printed) was “inhibited”. The “IL-5, Cellular Alternaria Extract (25 μg/mL), 1” value ([3]; fluticasone 10^−9 M, asthma patient PBMC, 3 days) was 0.4, the “IL-5, Cellular Alternaria Extract (25 μg/mL), 1” value [3, 5] was 1.4 and the “IL-5, Cellular Alternaria Extract (25 μg/mL), 2” value [3, 5] was 3.9. The “IL-5, Cellular Alternaria Extract (25 μg/mL), mean” value [3, 5] was 2.6, the “IL-5, Der P (25 μg/mL), 2” value [3, 5] was 0.9 and the “IL-5, Der P (25 μg/mL), mean” value [3, 5] was 0.9. The “IL-5, Con A (5 μg/mL), mean” value ([3]; fluticasone 10^−10 M, mean of values multiplied by 50) was 101, the “IL-5, Medium, 1” value [3, 6] was 1.3 and the “IL-5, Medium, 2” value [3, 6] was 0.3. The “IL-5, Medium, mean” value [3, 6] was 0.8, the “IL-5, Con A (5 μg/mL), 1*50” value [3, 7] was 87 and the “IL-5, Con A (5 μg/mL), 2*50” value [3, 7] was 115. The “IL-5, Con A (5 μg/mL), 1” value [3, 8] was 1.7 and the “IL-5, Con A (5 μg/mL), 2” value [3, 8] was 2.3.

`C[C@H](CCC(=O)O)C[C@H](C)C[C@H](C)C(=O)/C=C(\O)[C@H](C)C[C@H](C)C/C=C/[C@@H](C)[C@@H](O)[C@@H](C)[C@@H](O)C[C@@H]1CC[C@@](C)([C@H]2CC[C@@](C)([C@@H](C)O)O2)O1` [ionomycin] was tested, and the “effect on Alternaria-induced eosinophil degranulation” value [1, 9] was “synergistically increased” and the “effect on IL-5-induced eosinophil degranulation” value [2, 10] was “significantly inhibited”.

`C/C=C(/C)C(=O)O[C@H]1C(C)=C2[C@H]([C@@H]1OC(=O)CCCCCCC)[C@@](C)(OC(C)=O)C[C@H](OC(=O)CCC)[C@@]1(O)[C@H]2OC(=O)[C@@]1(C)O` [thapsigargin] was tested, and the “effect on Alternaria-induced eosinophil degranulation” value [1, 9] was “synergistically increased” and the “effect on IL-5-induced eosinophil degranulation” value [2, 10] was “significantly inhibited”.

In the case of Herbmycin, the “effect on IL-5-induced eosinophil degranulation” value ([2]; various concentrations) is reported as “completely inhibited”.

B1: OVA: OVA antigen used for sensitization and challenge of mice (protein, UniProt P01012 2-386, looked up)
Ovalbumin: GSIGAASMEFCFDVFKELKVHHANENIFYCPIAIMSALAMVYLGAKDSTRTQINKVVRFDKLPGFGDSIEAQCGTSVNVHSSLRDILNQITKPNDVYSFSLASRLYAEERYPILPEYLQCVKELYRGGLEPINFQTAADQARELINSWVESQTNGIIRNVLQPSSVDSQTAMVLVNAIVFKGLWEKAFKDEDTQAMPFRVTEQESKPVQMMYQIGLFRVASMASEKMKILELPFASGTMSMLVLLPDEVSGLEQLESIINFEKLTEWTSSNVMEERKIKVYLPRMKMEEKYNLTSVLMAMGITDVFSSSANLSGISSAESLKISQAVHAAHAEINEAGREVVGSAEAGVDAASVSEEFRADHPFLFCIKHIATNAVLFFGRCVSP
In the case of B1, the “airway eosinophilia in non-sensitized (naïve) mice” value ([4]; intranasal challenge only) is reported as “not” and the “airway eosinophilia in sensitized and challenged mice” value ([4]; intraperitoneal sensitization day 14, intranasal challenge 250 μg/dose days 28, 30, 32) is reported as “developed airway eosinophilia by day 34”.
